Measurements reported in US20040224958A1, “Pyridopyrimidinone derivatives for treatment of neurodegenerative disease” (priority 2000, published 2004).
pIC50: −log10 of the molar value.

Tests used:
cdk4/D = cdk4/D (Homo sapiens, UniProt P11802); assay: Cyclin-Dependent Kinase 4 (cdk4) Assay; type: biochemical; details: Table 1; read-out: cdk4/D IC50
Cdk5/p25 = Cdk5/p25 (Homo sapiens, UniProt Q00535); assay: Cyclin-Dependent Kinase 5 (cdk5) Assay; type: biochemical; details: Table 1
Description: Cyclin-Dependent Kinase 5 (cdk5) Assay
Enzyme assays for IC50 determinations and kinetic evaluation were performed in 96-well filter plates (Millipore MAPH NOB 10). […] All components except histone and ATP were added to wells, and the plate was placed on a shaker for 5 minutes. The reaction was started by adding histone and [^32P]ATP, and the plate was shaken at 30° C. for 45 minutes. The reaction was terminated by addition of 0.1 mL of 150 mM phosphoric acid. The plate was kept at 4° C. for 30 minutes to allow substrate to precipitate. The wells were then washed three times with 0.2 mL of 75 mM phosphoric acid and ^32P incorporation was determined with a beta plate counter (Wallac Inc, Gaithersburg, Md.).

cdk2/cyclinE = cdk2/cyclinE (Homo sapiens, UniProt P24941); assay: Cyclin-Dependent Kinase Assay cdk2/cyclinE; details: cdk2/E IC50, Table 1
cdk2/cyclinA = cdk2/cyclinA (Homo sapiens, UniProt P24941); assay: Cyclin-Dependent Kinase Assay cdk2/cyclinA; details: cdk2/A IC50, Table 1
cdc2/cyclinB = cdc2/cyclinB (Homo sapiens, UniProt P06493); assay: Cyclin-Dependent Kinase Assay cdc2/cyclinB
cdc2/cyclinB, sequence (P06493 whole entry): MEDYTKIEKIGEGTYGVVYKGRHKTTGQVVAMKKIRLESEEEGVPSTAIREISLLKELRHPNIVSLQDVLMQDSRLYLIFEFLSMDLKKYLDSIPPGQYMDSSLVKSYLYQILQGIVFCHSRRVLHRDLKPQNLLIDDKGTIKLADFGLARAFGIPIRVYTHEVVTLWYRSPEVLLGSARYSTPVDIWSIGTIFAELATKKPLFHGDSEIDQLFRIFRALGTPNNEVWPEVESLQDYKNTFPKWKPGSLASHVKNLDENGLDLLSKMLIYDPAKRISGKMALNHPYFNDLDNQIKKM
cdc2/cyclinB, sequence (P14635 whole entry, further chain): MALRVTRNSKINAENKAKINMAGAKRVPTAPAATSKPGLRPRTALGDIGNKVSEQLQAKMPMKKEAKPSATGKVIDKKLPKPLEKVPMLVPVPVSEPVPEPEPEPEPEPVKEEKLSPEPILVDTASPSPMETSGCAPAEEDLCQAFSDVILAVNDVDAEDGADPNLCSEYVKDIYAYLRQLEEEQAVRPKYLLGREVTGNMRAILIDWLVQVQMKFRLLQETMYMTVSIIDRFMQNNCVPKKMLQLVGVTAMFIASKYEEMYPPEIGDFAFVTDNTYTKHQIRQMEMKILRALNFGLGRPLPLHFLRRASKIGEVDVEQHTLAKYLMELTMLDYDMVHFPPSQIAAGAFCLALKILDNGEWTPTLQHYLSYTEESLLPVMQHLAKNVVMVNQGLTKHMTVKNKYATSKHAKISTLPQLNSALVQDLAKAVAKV

cdk4/D, sequence (P11802 whole entry): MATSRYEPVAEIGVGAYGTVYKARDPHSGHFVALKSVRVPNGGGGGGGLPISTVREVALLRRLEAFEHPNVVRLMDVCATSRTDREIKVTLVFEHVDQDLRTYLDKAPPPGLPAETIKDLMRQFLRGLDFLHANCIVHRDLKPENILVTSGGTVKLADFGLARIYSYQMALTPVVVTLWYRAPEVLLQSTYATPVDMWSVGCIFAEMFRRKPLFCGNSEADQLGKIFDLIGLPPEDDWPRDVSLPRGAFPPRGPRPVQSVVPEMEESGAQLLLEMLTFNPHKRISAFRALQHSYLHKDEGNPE
cdk4/D, sequence (P24385 whole entry, further chain): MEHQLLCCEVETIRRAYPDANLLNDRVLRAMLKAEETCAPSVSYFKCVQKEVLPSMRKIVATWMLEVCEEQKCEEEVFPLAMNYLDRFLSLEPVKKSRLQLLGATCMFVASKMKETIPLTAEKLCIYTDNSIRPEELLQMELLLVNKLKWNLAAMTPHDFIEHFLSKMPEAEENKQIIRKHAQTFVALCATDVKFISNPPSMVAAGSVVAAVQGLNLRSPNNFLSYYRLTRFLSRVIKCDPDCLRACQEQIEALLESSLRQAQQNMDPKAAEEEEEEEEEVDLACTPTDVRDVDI

SMILES	pIC50 (cdk4/D)	pIC50 (Cdk5/p25)	melting point [°C]	pIC50 (cdk2/cyclinE)	pIC50 (cdk2/cyclinA)	pIC50 (cdc2/cyclinB)
CCN(CC)CCOc1ccc(Nc2ncc3ccc(=O)n(C4CCCCC4)c3n2)cc1 [Example 132, 8-Cyclohexyl-2-[4-(2-diethylamino-ethoxy)-phenylamino]-8H-pyrido[2,3-d]pyrimidin-7-one]	7.98	7.59	135 to 137	7.04	7.22	6.43
O=c1ccc2cnc(Nc3ccc(N4CCC(CCCN5CCOCC5)CC4)cc3)nc2n1C1CC2CCC1C2 (centres unmarked) [Example 235, 8-Bicyclo[2.2.1]hept-2-yl-2-{4-[4-(3-morpholin-4-yl-propyl)-piperidin-1-yl]-phenylamino}-8H-pyrido[2,3-d]pyrimidin-7-one]	7.43	5.84	197 to 198	–	7.02	5.77
CCN(CC)CCOc1ccc(Nc2ncc3ccc(=O)n(C4CC5CCC4C5)c3n2)cc1 (centres unmarked) [Example 224, 8-Bicyclo[2.2.1]hept-2-yl-2-[4-(2-diethylamino-ethoxy)-phenylamino]-8H-pyrido[2,3-d]pyrimidin-7-one]	–	7.27	133 to 134	7.12	7.09	6.70
CN1CCN(c2ccc(Nc3ncc4ccc(=O)n(C5CC6CCC5C6)c4n3)cc2)CC1 (centres unmarked) [Example 252]	8.21	7.63	233 to 234	6.99	7.37	6.80
O=c1ccc2cnc(Nc3ccc(N4CCC(O)CC4)cc3)nc2n1C1CC2CCC1C2 (centres unmarked) [Example 227, 8-Bicyclo[2.2.1]hept-2-yl-2-[4-(4-hydroxy-piperidin-1-yl)-phenylamino]-8H-pyrido[2,3-d]pyrimidin-7-one]	8.55	7.44	206	7.25	7.68	7.08
CN(C)c1ccc(Nc2ncc3ccc(=O)n(CCCOCc4ccccc4)c3n2)cc1 [Example 138, 8-(3-Benzyloxy-propyl)-2-(4-dimethylamino-phenylamino)-8H-pyrido[2,3-d]pyrimidin-7-one]	6.29	6.55	144 to 146	5.58	6.66	5.48
O=c1ccc2cnc(Nc3ccc(N4CCC(CCO)CC4)cc3)nc2n1C1CC2CCC1C2 (centres unmarked) [Example 228, 8-Bicyclo[2.2.1]hept-2-yl-2-{4-[4-(2-hydroxy-ethyl)-piperidin-1-yl]-phenylamino}-8H-pyrido[2,3-d]pyrimidin-7-one]	8.26	7.41	202	6.73	7.01	6.42
O=c1ccc2cnc(Nc3ccc(N4CCCC(CO)C4)cc3)nc2n1C1CC2CCC1C2 (centres unmarked) [Example 231, 8-Bicyclo[2.2.1]hept-2-yl-2-[4-(3-hydroxymethyl-piperidin-1-yl)-phenylamino]-8H-pyrido[2,3-d]pyrimidin-7-one]	8.68	6.78	152	7.07	7.20	6.66
O=c1ccc2cnc(Nc3ccc(F)cc3)nc2n1C1CC2CCC1C2 (centres unmarked) [Example 212, 8-Bicyclo[2.2.1]hept-2-yl-2-(4-fluoro-phenylamino)-8H-pyrido[2,3-d]pyrimidin-7-one]	7.53	8.00	219 to 220	7.85	7.80	6.72
O=c1ccc2cnc(Nc3ccc(OC(F)(F)C(F)F)cc3)nc2n1C1CC2CCC1C2 (centres unmarked) [Example 219, 8-Bicyclo[2.2.1]hept-2-yl-2-[4-(1,1,2,2-tetrafluoro-ethoxy)-phenylamino]-8H-pyrido[2,3-d]pyrimidin-7-one]	6.11	6.25	214 to 215	4.50	5.18	5.15
O=c1ccc2cnc(Nc3ccc(N4CCCC(CCCO)C4)cc3)nc2n1C1CC2CCC1C2 (centres unmarked) [Example 236, 8-Bicyclo[2.2.1]hept-2-yl-2-{4-[3-(3-hydroxy-propy)-piperidin-1-yl]-phenylamino}-8H-pyrido[2,3-d]pyrimidin-7-one]	8.16	6.40	150 to 151	–	7.87	6.17
O=c1ccc2cnc(Nc3ccc(F)c(F)c3)nc2n1C1CC2CCC1C2 (centres unmarked) [Example 220, 8-Bicyclo[2.2.1]hept-2-yl-2-(3,4-difluoro-phenylamino)-8H-pyrido[2,3-d]pyrimidin-7-one]	6.94	7.18	227 to 228	7.30	7.24	5.78
O=c1ccc2cnc(Nc3ccc(N4CCCCC4CO)cc3)nc2n1C1CC2CCC1C2 (centres unmarked) [Example 253]	7.94	6.52	160 to 161	6.83	6.96	6.17

Results, then the compound that gave them:

pIC50 (cdk4/D)	pIC50 (Cdk5/p25)	melting point [°C]	pIC50 (cdk2/cyclinE)	pIC50 (cdk2/cyclinA)	pIC50 (cdc2/cyclinB)	SMILES
6.76	6.95	199 to 200	–	7.21	6.60	O=c1ccc2cnc(Nc3ccc(N4CCCC4)cc3)nc2n1C1CCCCC1 [Example 160, 8-Cyclohexyl-2-(4-pyrrolidin-1-yl-phenylamino)-8H1-pyrido[2,3-d]pyrimidin-7-one]
8.12	7.61	224 to 225	7.62	8.08	6.95	O=c1ccc2cnc(Nc3ccc(N4CCC(O)CC4)cc3)nc2n1C1CCCCC1 [Example 215, 8-Cyclohexyl-2-[4-(4-hydroxy-piperidin-1-yl)-phenylamino]-8H-pyrido[2,3-d]pyrimidin-7-one]
8.35	7.76	237 to 239	7.34	7.49	6.84	CC1CN(c2ccc(Nc3ncc4ccc(=O)n(C5CCCCC5)c4n3)cc2)CC(C)N1 (centres unmarked) [Example 145, 8-Cyclohexyl-2-14-(3,5-dimethyl-piperazin-1-yl)-phenylamino-8H-pyrido[2,3-d]pyrimidin-7-one]
7.05	7.37	241 to 242	7.06	7.45	6.57	O=c1ccc2cnc(Nc3ccc(-n4cccn4)cc3)nc2n1C1CCCCC1 [Example 162, 8-Cyclohexyl-2-(4-pyrazol-1-yl-phenylamino)-8H-pyrido[2,3-d]pyrimidin-7-one]
6.37	5.57	238 to 240	–	6.57	5.05	CC1CC(C)CN(c2ccc(Nc3ncc4ccc(=O)n(C5CCCCC5)c4n3)cc2)C1 (centres unmarked) [Example 167]
8.35	8.16	205 to 207	7.71	7.82	7.11	CN1CCN(c2ccc(Nc3ncc4ccc(=O)n(C5CCCCC5)c4n3)cc2)CC1 [Example 133, 8-Cyclohexyl-2-[4-(4-methyl-piperazin-1-yl)-phenylamino]-8H-pyrido[2,3-d]pyrimidin-7-one]
–	6.38	185	6.49	6.91	5.92	O=c1ccc2cnc(Nc3ccc(N4CCc5ccccc5C4)cc3)nc2n1C1CCCCC1 [Example 171, 8-Cyclohexyl-2-[4-(3,4-dihydro-1H-isoquinolin-2-yl)-phenylamino]-8H-pyrido[2,3-d]pyrimidin-7-one]
6.56	7.37	183 to 184	6.26	6.98	6.35	O=c1ccc2cnc(Nc3ccc(-n4cccc4)cc3)nc2n1C1CCCCC1 [Example 161, 8-Cyclohexyl-2-(4-pyrrole-1-yl-phenylamino)-811-pyrido[2,3-d]pyrimidin-7-one]
8.35	8.16	208 to 209	7.71	7.82	7.11	CC1CCN(c2ccc(Nc3ncc4ccc(=O)n(C5CCCCC5)c4n3)cc2)CC1 [Example 159, 8-Cyclohexyl-2-[4-(4-methyl-piperidin-1-yl)-phenylamino]-8H-pyrido[2,3-d]pyrimidin-7-one]
7.24	6.23	243 to 244	–	6.71	4.48	O=c1ccc2cnc(Nc3ccc(N4CCCCC4)cc3)nc2n1[C@@H]1C[C@H]2CC[C@@H]1C2 (relative stereo) [Example 181, 8-Bicyclo[2.2.1]hept-2-yl-2-(4-piperidin-1-yl-phenylamino)-8H-pyrido[2,3-d]pyrimidin-7-one]
